{
  "source": "ChEMBL document CHEMBL5465560",
  "about": "“Selectivity Literature for EUbOPEN Chemogenomic Library” (2024)",
  "key": {"[1]": {"target": "Mitogen-activated protein kinase 11 (Homo sapiens) (UniProt Q15759)", "assay": "Selectivity interaction (Ambit KINOMEscan and KiNATiv profiling in Jurkat cells) EUB0000090b MAPK11", "type": "cell-based", "conditions": "at 1 µM"}, "[2]": {"target": "Leukocyte tyrosine kinase receptor (Homo sapiens, UniProt P29376)", "sequence (P29376 whole entry)": "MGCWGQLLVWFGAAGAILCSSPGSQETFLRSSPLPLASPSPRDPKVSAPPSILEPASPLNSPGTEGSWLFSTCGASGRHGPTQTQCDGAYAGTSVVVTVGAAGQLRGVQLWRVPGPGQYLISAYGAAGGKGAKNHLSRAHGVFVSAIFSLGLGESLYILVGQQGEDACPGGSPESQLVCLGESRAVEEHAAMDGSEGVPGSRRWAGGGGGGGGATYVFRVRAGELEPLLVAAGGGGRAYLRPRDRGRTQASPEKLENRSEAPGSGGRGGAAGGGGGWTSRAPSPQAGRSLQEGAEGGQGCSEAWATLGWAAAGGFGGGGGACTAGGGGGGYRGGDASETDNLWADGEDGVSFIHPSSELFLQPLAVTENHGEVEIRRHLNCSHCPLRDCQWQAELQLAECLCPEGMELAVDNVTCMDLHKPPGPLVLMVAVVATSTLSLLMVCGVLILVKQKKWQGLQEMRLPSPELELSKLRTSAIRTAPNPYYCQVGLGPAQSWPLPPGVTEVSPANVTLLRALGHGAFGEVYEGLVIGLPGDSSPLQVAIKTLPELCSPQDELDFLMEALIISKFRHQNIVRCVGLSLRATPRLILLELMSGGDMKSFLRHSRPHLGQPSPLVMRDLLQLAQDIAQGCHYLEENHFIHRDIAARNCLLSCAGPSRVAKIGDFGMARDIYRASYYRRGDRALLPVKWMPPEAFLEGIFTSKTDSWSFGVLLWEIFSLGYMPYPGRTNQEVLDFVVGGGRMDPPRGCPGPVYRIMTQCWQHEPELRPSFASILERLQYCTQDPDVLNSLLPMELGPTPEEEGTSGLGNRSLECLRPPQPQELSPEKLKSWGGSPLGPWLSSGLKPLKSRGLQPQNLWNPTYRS", "assay": "Selectivity interaction (SelectScreen profiling (Invitrogen)) EUB0000607a LTK", "conditions": "at 2 µM"}, "[3]": {"target": "T1, Dual specificity mitogen-activated protein kinase kinase 3 (Homo sapiens) (UniProt P46734)", "T1 sequence (whole entry)": "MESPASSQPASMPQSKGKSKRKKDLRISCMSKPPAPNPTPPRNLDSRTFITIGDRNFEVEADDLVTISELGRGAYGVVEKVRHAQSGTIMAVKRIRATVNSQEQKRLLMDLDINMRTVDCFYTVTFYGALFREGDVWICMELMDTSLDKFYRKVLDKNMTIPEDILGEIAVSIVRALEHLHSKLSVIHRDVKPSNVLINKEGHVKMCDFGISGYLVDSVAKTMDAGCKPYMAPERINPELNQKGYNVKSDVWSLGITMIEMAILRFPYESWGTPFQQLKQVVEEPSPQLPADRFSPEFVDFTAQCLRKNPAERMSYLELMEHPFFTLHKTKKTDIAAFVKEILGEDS", "assay": "Selectivity interaction (ActivX KiNativ screen (ex vivo kinase selectivity in human PBMCs)) EUB0001619a MAP2K3", "type": "cell-based", "conditions": "PBMC, at 1 µM"}, "[4]": {"target": "T2, Dual specificity mitogen-activated protein kinase kinase 4 (Homo sapiens) (UniProt P45985)", "T2 sequence (whole entry)": "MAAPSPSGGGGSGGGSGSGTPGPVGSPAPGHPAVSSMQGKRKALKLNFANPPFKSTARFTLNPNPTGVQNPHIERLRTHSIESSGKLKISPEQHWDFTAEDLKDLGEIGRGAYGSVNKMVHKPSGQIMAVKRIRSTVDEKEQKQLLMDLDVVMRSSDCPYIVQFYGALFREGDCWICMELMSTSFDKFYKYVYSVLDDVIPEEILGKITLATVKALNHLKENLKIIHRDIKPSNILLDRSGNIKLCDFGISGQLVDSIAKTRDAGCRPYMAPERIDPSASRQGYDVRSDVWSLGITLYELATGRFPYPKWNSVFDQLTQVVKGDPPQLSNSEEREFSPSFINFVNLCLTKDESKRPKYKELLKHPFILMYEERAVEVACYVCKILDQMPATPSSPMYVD", "assay": "Selectivity interaction (ActivX KiNativ screen (ex vivo kinase selectivity in human PBMCs)) EUB0001619a MAP2K4", "type": "cell-based", "conditions": "PBMC, at 1 µM"}, "[5]": {"target": "Activated CDC42 kinase 1 (Homo sapiens, UniProt Q07912)", "sequence (Q07912 whole entry, looked up)": "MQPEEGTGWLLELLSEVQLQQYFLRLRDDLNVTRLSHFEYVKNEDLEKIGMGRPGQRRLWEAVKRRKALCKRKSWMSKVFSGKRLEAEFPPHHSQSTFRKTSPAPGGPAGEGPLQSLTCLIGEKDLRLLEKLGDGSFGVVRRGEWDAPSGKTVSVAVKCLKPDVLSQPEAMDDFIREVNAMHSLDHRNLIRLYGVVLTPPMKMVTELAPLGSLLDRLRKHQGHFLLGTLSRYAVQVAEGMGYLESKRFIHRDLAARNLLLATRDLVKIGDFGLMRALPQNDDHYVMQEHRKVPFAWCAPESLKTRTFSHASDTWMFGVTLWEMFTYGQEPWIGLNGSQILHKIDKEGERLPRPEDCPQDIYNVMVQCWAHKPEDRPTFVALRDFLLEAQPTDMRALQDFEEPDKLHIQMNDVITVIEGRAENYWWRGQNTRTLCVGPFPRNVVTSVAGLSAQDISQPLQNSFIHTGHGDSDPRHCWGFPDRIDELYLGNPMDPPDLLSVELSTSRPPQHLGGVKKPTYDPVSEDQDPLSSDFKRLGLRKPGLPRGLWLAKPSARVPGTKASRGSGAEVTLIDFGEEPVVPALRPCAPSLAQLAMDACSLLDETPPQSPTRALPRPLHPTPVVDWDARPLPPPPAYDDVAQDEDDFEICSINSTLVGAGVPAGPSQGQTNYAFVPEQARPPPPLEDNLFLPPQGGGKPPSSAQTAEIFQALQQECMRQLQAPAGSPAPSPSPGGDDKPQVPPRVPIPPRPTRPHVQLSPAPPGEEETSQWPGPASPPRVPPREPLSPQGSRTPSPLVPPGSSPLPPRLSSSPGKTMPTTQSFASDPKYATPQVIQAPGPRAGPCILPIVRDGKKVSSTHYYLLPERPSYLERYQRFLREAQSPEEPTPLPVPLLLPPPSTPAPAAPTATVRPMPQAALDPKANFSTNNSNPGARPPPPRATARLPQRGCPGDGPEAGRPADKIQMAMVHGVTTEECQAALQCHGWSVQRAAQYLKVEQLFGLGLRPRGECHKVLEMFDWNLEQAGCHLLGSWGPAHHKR", "assay": "Selectivity interaction (KinomeScan (DiscoverX)) EUB0000045b TNK2"}, "[6]": {"target": "T3, Cyclin-dependent kinase-like 5 (Homo sapiens) (UniProt O76039)", "T3 sequence (whole entry)": "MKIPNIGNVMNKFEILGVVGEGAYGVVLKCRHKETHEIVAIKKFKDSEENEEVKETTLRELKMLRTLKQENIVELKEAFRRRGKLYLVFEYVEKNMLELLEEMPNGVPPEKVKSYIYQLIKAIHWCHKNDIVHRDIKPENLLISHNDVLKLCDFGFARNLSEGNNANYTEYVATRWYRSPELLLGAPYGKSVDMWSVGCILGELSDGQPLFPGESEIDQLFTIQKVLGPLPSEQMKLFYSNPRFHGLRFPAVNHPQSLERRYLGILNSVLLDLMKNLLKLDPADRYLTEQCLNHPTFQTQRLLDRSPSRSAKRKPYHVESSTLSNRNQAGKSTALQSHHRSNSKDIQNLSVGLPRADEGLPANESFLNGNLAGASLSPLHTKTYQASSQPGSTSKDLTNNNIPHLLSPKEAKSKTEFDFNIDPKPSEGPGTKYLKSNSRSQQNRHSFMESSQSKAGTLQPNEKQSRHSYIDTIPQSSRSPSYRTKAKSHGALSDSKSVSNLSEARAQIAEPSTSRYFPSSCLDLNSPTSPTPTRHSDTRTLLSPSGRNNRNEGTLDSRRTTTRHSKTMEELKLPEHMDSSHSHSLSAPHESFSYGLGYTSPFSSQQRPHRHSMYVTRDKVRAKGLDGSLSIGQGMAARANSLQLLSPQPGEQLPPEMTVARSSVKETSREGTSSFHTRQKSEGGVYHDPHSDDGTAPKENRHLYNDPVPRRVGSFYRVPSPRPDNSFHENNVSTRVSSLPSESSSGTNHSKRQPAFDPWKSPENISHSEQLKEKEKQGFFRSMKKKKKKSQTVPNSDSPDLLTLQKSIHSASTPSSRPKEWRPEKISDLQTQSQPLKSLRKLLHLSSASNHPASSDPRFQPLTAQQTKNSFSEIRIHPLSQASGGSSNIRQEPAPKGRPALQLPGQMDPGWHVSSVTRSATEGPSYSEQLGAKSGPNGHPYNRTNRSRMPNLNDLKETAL", "assay": "Selectivity interaction (KinomeScan (DiscoverX)) EUB0000595a CDKL5", "conditions": "at 10 µM"}, "[7]": {"target": "Insulin-like growth factor 1 receptor (Homo sapiens, UniProt P08069)", "assay": "Selectivity interaction (Kinase panel (enzymatic assay)) EUB0000595a IGF1R"}, "[8]": {"target": "Tyrosine-protein kinase SYK (Homo sapiens, UniProt P43405)", "conditions": "at 10 µM"}, "[9]": {"target": "DNA-dependent protein kinase catalytic subunit (Homo sapiens) (UniProt P78527)", "assay": "Selectivity interaction (ActivX KiNativ screen (kinase selectivity in THP-1 cell lysates)) EUB0000639a PRKDC", "type": "subcellular", "conditions": "lysate, at 0.01 µM"}, "[10]": {"target": "Mitogen-activated protein kinase kinase kinase kinase 1 (Homo sapiens) (UniProt Q92918)", "assay": "Selectivity interaction (ActivX KiNativ screen (kinase selectivity in THP-1 cell lysates)) EUB0000639a MAP4K1", "type": "subcellular", "conditions": "lysate, at 0.2 µM"}, "[11]": {"target": "Serine/threonine-protein kinase MARK2 (Homo sapiens) (UniProt Q7KZI7)", "sequence (Q7KZI7 whole entry)": "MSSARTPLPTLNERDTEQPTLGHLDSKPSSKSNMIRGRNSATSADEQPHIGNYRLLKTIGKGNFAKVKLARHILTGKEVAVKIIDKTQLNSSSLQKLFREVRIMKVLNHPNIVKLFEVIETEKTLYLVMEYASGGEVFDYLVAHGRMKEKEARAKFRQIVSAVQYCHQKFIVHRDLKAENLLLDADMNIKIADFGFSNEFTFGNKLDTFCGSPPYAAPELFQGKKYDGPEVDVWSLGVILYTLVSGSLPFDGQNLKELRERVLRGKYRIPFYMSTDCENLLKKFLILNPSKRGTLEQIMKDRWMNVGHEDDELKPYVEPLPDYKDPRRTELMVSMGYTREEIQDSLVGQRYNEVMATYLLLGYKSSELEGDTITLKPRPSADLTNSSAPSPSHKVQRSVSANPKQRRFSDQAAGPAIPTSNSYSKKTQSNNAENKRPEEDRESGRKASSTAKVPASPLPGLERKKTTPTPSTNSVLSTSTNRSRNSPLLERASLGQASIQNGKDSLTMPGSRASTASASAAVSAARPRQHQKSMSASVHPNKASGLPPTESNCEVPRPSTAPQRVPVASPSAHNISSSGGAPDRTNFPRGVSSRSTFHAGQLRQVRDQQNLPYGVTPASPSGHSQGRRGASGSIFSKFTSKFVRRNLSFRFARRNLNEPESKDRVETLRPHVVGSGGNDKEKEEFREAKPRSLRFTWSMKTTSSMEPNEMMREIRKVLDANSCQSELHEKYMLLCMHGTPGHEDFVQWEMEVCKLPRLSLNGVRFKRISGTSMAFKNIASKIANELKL", "assay": "Selectivity interaction (ActivX KiNativ screen (kinase selectivity in THP-1 cell lysates)) EUB0000639a MARK2", "type": "subcellular", "conditions": "lysate, at 5 µM"}, "[12]": {"tested_on": "Fibroblast growth factor receptor 3 (Homo sapiens), P22607 [G697C]", "sequence (P22607 whole entry G697C)": "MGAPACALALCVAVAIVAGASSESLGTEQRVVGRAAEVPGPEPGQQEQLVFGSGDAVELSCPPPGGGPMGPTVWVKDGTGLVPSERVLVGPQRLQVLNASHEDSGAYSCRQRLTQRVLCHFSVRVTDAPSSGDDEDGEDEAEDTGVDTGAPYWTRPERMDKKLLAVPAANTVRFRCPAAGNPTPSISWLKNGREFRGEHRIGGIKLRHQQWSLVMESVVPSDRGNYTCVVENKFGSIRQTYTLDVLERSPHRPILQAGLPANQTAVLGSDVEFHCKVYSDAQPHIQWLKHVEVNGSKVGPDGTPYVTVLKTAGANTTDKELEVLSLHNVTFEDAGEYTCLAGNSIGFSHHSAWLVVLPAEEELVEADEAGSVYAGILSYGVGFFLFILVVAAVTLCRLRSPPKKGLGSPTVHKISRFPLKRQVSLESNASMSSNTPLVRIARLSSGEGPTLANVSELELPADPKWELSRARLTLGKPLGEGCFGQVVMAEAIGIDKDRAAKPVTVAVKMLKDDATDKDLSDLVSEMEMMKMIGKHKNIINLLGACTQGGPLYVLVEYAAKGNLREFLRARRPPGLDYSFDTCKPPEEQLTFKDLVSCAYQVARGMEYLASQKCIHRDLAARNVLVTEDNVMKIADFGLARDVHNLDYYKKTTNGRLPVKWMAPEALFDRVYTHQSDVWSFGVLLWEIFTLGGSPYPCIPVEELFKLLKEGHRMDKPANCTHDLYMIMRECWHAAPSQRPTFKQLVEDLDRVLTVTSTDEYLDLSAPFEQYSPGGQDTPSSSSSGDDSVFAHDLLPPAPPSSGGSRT", "assay": "(§1) Selectivity interaction (ProQinase) EUB0000171b FGFR3"}, "[13]": {"tested_on": "Fibroblast growth factor receptor 3 (Homo sapiens), P22607 [K650E]", "sequence (P22607 whole entry K650E)": "as the sequence (P22607 whole entry G697C) above, with K650E, C697G counted along it", "assay": "as §1"}, "[14]": {"tested_on": "Fibroblast growth factor receptor 3 (Homo sapiens), P22607 [K650M]", "sequence (P22607 whole entry K650M)": "as the sequence (P22607 whole entry G697C) above, with K650M, C697G counted along it", "assay": "as §1"}, "[15]": {"target": "Fibroblast growth factor receptor 3 (Homo sapiens, UniProt P22607)", "sequence (P22607 23-806 limits assumed)": "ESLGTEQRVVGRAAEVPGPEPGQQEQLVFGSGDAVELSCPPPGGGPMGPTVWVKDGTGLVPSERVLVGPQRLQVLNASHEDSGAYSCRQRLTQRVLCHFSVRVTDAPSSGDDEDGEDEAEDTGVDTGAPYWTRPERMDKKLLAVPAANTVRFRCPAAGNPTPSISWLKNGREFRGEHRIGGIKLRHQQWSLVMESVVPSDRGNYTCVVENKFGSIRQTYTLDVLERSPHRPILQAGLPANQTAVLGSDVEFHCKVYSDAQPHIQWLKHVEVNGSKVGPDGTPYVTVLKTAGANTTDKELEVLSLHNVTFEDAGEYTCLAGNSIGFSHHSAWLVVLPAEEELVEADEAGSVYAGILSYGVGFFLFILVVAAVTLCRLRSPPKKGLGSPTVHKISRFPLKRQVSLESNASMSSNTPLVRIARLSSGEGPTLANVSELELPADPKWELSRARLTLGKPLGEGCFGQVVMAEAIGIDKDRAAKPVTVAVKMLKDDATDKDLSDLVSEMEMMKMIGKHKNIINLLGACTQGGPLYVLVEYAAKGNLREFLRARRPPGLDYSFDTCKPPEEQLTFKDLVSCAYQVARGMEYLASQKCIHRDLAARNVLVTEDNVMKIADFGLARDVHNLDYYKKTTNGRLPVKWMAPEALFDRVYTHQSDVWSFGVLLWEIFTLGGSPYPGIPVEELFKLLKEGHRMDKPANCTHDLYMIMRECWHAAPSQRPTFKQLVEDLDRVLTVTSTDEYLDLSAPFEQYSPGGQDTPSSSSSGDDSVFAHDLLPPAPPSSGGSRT", "assay": "as §1"}, "[16]": {"target": "Tyrosine-protein kinase HCK (Homo sapiens) (UniProt P08631)", "sequence (P08631 2-526 limits assumed)": "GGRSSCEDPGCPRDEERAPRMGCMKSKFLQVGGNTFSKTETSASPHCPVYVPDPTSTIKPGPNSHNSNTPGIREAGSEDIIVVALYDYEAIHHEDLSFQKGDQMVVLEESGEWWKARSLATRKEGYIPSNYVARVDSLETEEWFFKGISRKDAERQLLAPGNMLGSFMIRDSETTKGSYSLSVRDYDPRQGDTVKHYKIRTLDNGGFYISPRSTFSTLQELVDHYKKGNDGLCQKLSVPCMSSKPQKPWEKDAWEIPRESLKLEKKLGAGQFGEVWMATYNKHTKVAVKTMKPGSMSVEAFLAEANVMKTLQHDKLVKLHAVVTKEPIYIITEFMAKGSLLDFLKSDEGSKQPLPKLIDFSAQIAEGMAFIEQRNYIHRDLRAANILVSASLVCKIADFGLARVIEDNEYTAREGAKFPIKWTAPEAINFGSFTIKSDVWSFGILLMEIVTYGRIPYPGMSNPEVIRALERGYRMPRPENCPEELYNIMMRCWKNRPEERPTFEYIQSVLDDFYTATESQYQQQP", "assay": "Selectivity interaction (ProQinase) EUB0000171b HCK"}, "[17]": {"target": "Epidermal growth factor receptor (Homo sapiens, UniProt P00533)", "assay": "Selectivity interaction (Kinase screening (Nanosyn)) EUB0000604a EGFR"}},
  "data": [
    {"smiles": "CN(C)C/C=C/C(=O)Nc1ccc(C(=O)N2CCCC(Nc3ncc(Cl)c(-c4c[nH]c5ccccc45)n3)C2)cc1", "note": "(stereo not drawn)", "values": [
      {"measurement": "% of control", "setting": "[1]", "value": 97, "unit": "%"}
    ]},
    {"smiles": "CNC(=O)Nc1ccc(-c2nc(N3CC4CCC(C3)O4)c3cnn(C4CCC5(CC4)OCCO5)c3n2)cc1", "values": [
      {"measurement": "% of inhibition", "setting": "[2]", "value": 8, "unit": "%"}
    ]},
    {"smiles": "N#Cc1cccc(-c2c[nH]c3ncnc(N4CCOCC4)c23)c1", "values": [
      {"measurement": "% of inhibition", "setting": "[3]", "value": 6, "unit": "%"},
      {"measurement": "% of inhibition", "setting": "[4]", "value": -17, "unit": "%"}
    ]},
    {"smiles": "C=CC(=O)Nc1cc(-n2c(=O)ccc3cnc4ccc(-c5ccc(NS(C)(=O)=O)cc5)cc4c32)ccc1C", "values": [
      {"measurement": "% of control", "setting": "[5]; at 1 µM", "value": 100, "unit": "%"},
      {"measurement": "% of control", "setting": "[5]; at 10 µM", "value": 100, "unit": "%"}
    ]},
    {"smiles": "COCC(=O)NC/C=C/c1ccc2ncnc(Nc3ccc(Oc4ccc(C)nc4)c(C)c3)c2c1", "note": "[CP-724714]", "values": [
      {"measurement": "% of control", "setting": "[6]", "value": 100, "unit": "%"},
      {"measurement": "IC50", "setting": "[7]", "value": "> 10", "unit": "µM"}
    ]},
    {"smiles": "Cc1cc([C@@H](C)Nc2ccccc2C(=O)O)c2nc(N3CCOCC3)cc(=O)n2c1", "note": "[AZD-6482]", "values": [
      {"measurement": "% of control", "setting": "[8]", "value": 100, "unit": "%"}
    ]},
    {"smiles": "CC[C@@H]1[C@H](F)C(=O)N[C@@H]1COc1nccc2cc(C(N)=O)c(OC)cc12", "note": "[ZIMLOVISERTIB]", "values": [
      {"measurement": "% of inhibition", "setting": "[9]", "value": -2.2, "unit": "%"},
      {"measurement": "% of inhibition", "setting": "[10]", "value": -15.1, "unit": "%"},
      {"measurement": "% of inhibition", "setting": "[11]", "value": 48.9, "unit": "%"}
    ]},
    {"smiles": "C=CC(=O)Nc1cccc(C(=O)Nc2ccc(Nc3cc(-c4[nH]c(SC)nc4C)ccn3)cc2)c1", "values": [
      {"measurement": "% of control", "setting": "[12]; at 1 µM", "value": 103, "unit": "%"},
      {"measurement": "% of control", "setting": "[12]; at 5 µM", "value": 83, "unit": "%"},
      {"measurement": "% of control", "setting": "[13]; at 1 µM", "value": 104, "unit": "%"},
      {"measurement": "% of control", "setting": "[13]; at 5 µM", "value": 79, "unit": "%"},
      {"measurement": "% of control", "setting": "[14]; at 1 µM", "value": 97, "unit": "%"},
      {"measurement": "% of control", "setting": "[14]; at 5 µM", "value": 72, "unit": "%"},
      {"measurement": "% of control", "setting": "[15]; at 1 µM", "value": 98, "unit": "%"},
      {"measurement": "% of control", "setting": "[15]; at 5 µM", "value": 78, "unit": "%"},
      {"measurement": "% of control", "setting": "[16]; at 1 µM", "value": 105, "unit": "%"},
      {"measurement": "% of control", "setting": "[16]; at 5 µM", "value": 88, "unit": "%"}
    ]},
    {"smiles": "Cc1cnc(Nc2ccc(F)cc2Cl)nc1-c1c[nH]c(C(=O)N[C@H](CO)c2cccc(Cl)c2)c1", "values": [
      {"measurement": "% of inhibition", "setting": "[17]", "value": 6, "unit": "%"}
    ]}
  ]
}
